Experimental data taken from article PMC9228733, “Novel Radioiodinated and Radiofluorinated Analogues of FT-2102 for SPECT or PET Imaging of mIDH1 Mutant Tumours” (Molecules, 2022).
Where two headings read alike, the source gives them in different places.

Key:
mIDH1 = conditions: cited from earlier work
IDH1 R132C = target: T1, IDH1 R132C (Homo sapiens, UniProt O75874, R132C); test: Mutant IDH1 enzyme assay (diaphorase/resazurin), IDH1 R132C; type: biochemical; conditions: mean ± SD of at least three determinations
T1 construct: purchased ActiveMotif ACM-31713
T1 sequence (O75874 whole entry R132C): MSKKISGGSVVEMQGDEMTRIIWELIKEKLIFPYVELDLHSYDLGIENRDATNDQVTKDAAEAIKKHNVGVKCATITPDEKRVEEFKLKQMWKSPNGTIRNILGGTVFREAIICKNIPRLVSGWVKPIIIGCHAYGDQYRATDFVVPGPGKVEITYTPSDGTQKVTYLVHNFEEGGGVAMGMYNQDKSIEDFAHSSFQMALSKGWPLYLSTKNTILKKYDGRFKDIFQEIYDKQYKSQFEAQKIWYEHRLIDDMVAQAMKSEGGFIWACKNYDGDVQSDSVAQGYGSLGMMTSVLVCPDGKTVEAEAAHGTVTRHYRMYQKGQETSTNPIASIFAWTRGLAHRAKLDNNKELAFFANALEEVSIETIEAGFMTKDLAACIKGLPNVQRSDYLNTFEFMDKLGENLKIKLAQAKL
Method: (§1) The amount of NADPH remaining at the end of the reaction time is measured in a secondary diaphorase/resazurin reaction in which the NADPH is consumed in a 1:1 molar ratio with the conversion of resazurin to the highly fluorescent resorufin. […] For inhibition assays, triplicate samples of the compounds in the concentration range from 10^−5 to 10^−10 M were incubated with the enzyme for 30 min prior to addition of α-KG and NADPH to initiate the reaction. The reaction ran for 60 min at room temperature and was terminated with the addition of 25 μL of Detection Buffer (36 μg/mL diaphorase, […]) to 50 µL of the reaction solution. […] The data were imported into GraphPad Prism 4.1 (GraphPad Inc.; La Jolla; CA, USA), and the IC50 values were calculated with a standard dose–response curve fitting (Figure S3).

wt IDH2 = target: T2, wt IDH2 (Homo sapiens, UniProt P48735); test: wt IDH enzyme assay, wt IDH2; type: biochemical; conditions: mean of at least three determinations
T2 construct: purchased BPS Bioscience
T2 sequence (P48735 40-452): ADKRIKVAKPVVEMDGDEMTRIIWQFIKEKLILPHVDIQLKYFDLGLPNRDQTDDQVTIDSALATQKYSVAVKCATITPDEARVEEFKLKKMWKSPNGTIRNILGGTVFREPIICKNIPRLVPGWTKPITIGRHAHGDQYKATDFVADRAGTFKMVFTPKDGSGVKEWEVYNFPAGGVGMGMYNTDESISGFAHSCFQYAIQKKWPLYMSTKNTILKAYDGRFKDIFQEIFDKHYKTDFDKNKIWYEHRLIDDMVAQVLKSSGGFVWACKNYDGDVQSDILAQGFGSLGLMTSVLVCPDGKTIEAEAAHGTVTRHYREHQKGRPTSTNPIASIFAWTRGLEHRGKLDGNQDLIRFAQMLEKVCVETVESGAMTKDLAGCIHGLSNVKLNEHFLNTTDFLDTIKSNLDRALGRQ
Method: (§2) wt IDH enzyme assay is a modified version of the assay used for mIDH1. With the conversion of isocitrate to α-KG, this enzyme stoichiometrically converts NADP to NADPH. The produced NADPH, which directly couples to the diaphorase/resazurin system and the resorufin production, can be measured. The protocols for the determination of inhibition of both wt IDH1 and wt IDH2 were conducted as described by Wang et al.. The wt IDH1 (ab113858) was purchased from abcam (Cambridge, UK), and the wt IDH2, from BPS Bioscience (San Diego, CA, USA).
Assays for wt IDH2 were conducted in 50 µL buffer (20 mM TRIS buffer (pH = 7.5), 150 mM NaCl, 10 mM MgCl2, 0.05% BSA, and 4 mM β-mercaptoethanol) containing 50 µM NADP, 70 µM D/L-isocitrate, and 0.05 µg/mL wt IDH2 enzyme (reaction time 1 h at RT). For inhibition assays, triplicate samples of the compounds in the concentration range from 10^−5 to 10^−10 M were incubated with the wt IDH2 and NADP for 1 h before addition of D/L-isocitrate to initiate the reaction together with the direct detection system comprising 20 µg/mL diaphorase and 4 µM resazurin. The reaction was stopped by addition of 5 μL 10% SDS and read as described above. The data were imported into GraphPad Prism, and the IC50 values were calculated with a standard dose−response curve fitting.

wt IDH1 = target: T3, wt IDH1 (Homo sapiens, UniProt O75874); test: wt IDH enzyme assay, wt IDH1; type: biochemical; conditions: mean of at least three determinations
T3 construct: purchased abcam ab113858
T3 sequence (O75874 whole entry): as the sequence (O75874 whole entry R132C) above, with C132R counted along it
Method: as §2
Briefly, wt IDH1 assays were conducted in 50 µL buffer (20 mM TRIS buffer (pH = 7.5), 150 mM NaCl, 10 mM MgCl2, 0.05% BSA, and 4 mM β-mercaptoethanol) containing 50 µM NADP, 70 µM D/L-isocitrate, and 0.04 µg/mL wt IDH1 enzyme (reaction time 1 h at RT). For inhibition assays, triplicate samples of the compounds in the concentration range from 10^−5 to 10^−10 M were incubated with the wt IDH1 for 1 h before addition of D/L-isocitrate and NADP to initiate the reaction together with the direct detection system comprising 20 µg/mL diaphorase and 4 µM resazurin.

IDH1 R132H = target: T4, IDH1 R132H (Homo sapiens, UniProt O75874, R132H); test: Mutant IDH1 enzyme assay (diaphorase/resazurin), IDH1 R132H; type: biochemical; conditions: for IC50: mean ± SD of at least three determinations
T4 construct: purchased BPS Bioscience BPS-79376
T4 sequence (O75874 whole entry R132H): as the sequence (O75874 whole entry R132C) above, with C132H counted along it
Method: as §1

[1] = Stability of radiotracer at room temperature in ethanol, saline or DPBS (radio-HPLC); type: physicochemical
Method: To a solution of organotin precursor (S)-15 in methanol (50 µL, 1 mg/mL) were successively added [^125I]NaI (10-50 µL, 2.1–15.3 MBq), glacial acetic acid (2.5 µL), and a solution of CAT trihydrate (5 µL, 1 mg/mL). The reaction vial was sealed and stirred at room temperature for 5 min before addition of a solution of Na2S2O5 in deionised water (5 µL, 1 mg/mL). The reaction mixture was purified by semipreparative RP-HPLC. The collected fraction was further diluted with deionised water (10 mL) and passed through a Sep-Pak® Plus Light cartridge (beforehand conditioned successively with 10 mL of deionised water, 10 mL of methanol, and 10 mL of deionised water). The cartridge was washed with deionised water (2 mL) and dried with air before elution of the radioiodinated tracer (S)-[^125I]2 with ethanol (500 µL). The radiotracer was finally formulated in saline or DPBS (pH 7.4) to reach an ethanol content of ca. 5% for stability studies.
The aqueous solution of [^18F]F^− in [^18O]H2O was passed through an anion exchange resin (Sep-Pak® Light Accell Plus QMA carbonate cartridge) preconditioned with 10 mL of ethanol, 10 mL of an aqueous solution of lithium trifluoromethanesulfonate (90 mg/mL), and 10 mL of deionised water. Then, a solution of potassium carbonate (50 µg) and lithium trifluoromethanesulfonate (10 mg) in water (550 µL) was passed through the cartridge to elute the radioactivity to the reactor before addition of anhydrous ACN (1 mL). In such conditions, more than 97% of the radioactivity was usually recovered from the cartridge. The solution was dried by azeotropic distillation under reduced pressure and He flow at 100 °C for 12 min. After cooling to 25 °C, anhydrous DMA (2 mL) was added to the reactor. Then, 200 µL of the resulting solution (40–245 MBq, n = 10) was transferred in a glass vial equipped with a magnetic stirrer before addition of a solution of tetrakis(pyridine)copper(II) triflate (Cu(OTf)2(py)4, 14 mg, 20.6 µmol) in anhydrous DMA (250 µL) and a solution of the tin precursor (S)-15 (6.1 mg, 10.0 µmol) in anhydrous DMA (100 µL). The reaction mixture was stirred at 110 °C for 10 min. After cooling to 25 °C, deionised water (25 mL) was added, and the reaction mixture was passed through a Sep-Pak® C18 Plus Light cartridge preconditioned with 10 mL of deionised water, 10 mL of methanol, and 10 mL of deionised water. The cartridge was washed with deionised water (2 mL) and flushed with air before elution of the desired ^18F-labelled radiotracer with ACN (500 µL). For isolation of the radiotracer, the eluate was subjected to semipreparative RP-HPLC. The collected fraction was diluted with deionised water (25 mL) and passed through a Sep-Pak® C18 Plus Light cartridge preconditioned with 10 mL of deionised water, 10 mL of methanol, and 10 mL of deionised water. The cartridge was washed with deionised water (2 mL) and flushed with air before elution of the final (S)-[^18F]3 radiotracer with ethanol (500–600 µL). The radiotracer was finally formulated in saline or DPBS (pH 7.4) to reach an ethanol content of ca. 5% for stability studies.
(§3) Figure 7 Radioactivity-HPLC chromatograms of the radiotracer (S)-[^125I]2 incubated, for 1, 2, and 3 h post formulation, at room temperature in ethanol, NaCl 0.9% containing 5% ethanol, and DPBS (pH 7.4) containing 5% ethanol, as well as in a mixture of DPBS and mouse serum at 37 °C.
(§4) Figure 8 Radioactivity-HPLC chromatograms of the radiotracer (S)-[^18F]3 incubated, for 0, 1, and 2 h post formulation, at room temperature in ethanol, NaCl 0.9% containing 5% ethanol, and DPBS (pH 7.4) containing 5% ethanol, as well as in a mixture of DPBS and mouse serum at 37 °C.

[2] = Stability of radiotracer in mouse serum at 37 °C (radio-HPLC); type: in vitro ADME
Method: as §3, §4

[3] = phenyl-glycine scaffold, mixtures of stereoisomers, read-out: IC50 for mIDH1
[4] = butyl-phenyl sulfonamides, read-out: IC50

SMILES | IC50 (mIDH1; [3]) [nM] | IC50 (IDH1 R132C) [nM] | IC50 (wt IDH2) [nM] | IC50 (wt IDH1) [nM] | IC50 (IDH1 R132H) [nM] | also measured
N#Cc1ccnc(N2C(=O)CCC2C(=O)N(c2cncc([18F])c2)C(C(=O)NC2CC(F)(F)C2)c2ccccc2Cl)c1 (stereo not shown) [I] | < 50 | – | – | – | – | –
C[C@H](Nc1ccc(C#N)n(C)c1=O)c1cc2cc(I)ccc2[nH]c1=O [(S)-2, (S)-5-{[1-(6-iodo-2-oxo-1,2-dihydroquinolin-3-yl)ethyl]-amino}-1-methyl-6-oxo-1,6-dihydropyridine-2-carbonitrile] | – | 160 ± 24 | > 10000 | > 10000 | 5.23 ± 0.75 | –
Cc1ccccc1C(C(=O)NC1CCCCC1)N(C(=O)n1cnc2ccccc21)c1cccc([18F])c1 (stereo not shown) [II] | < 50 | – | – | – | – | –
Cc1ccccc1C(C(=O)NC1CCCCC1)N(C(=O)Cn1ccnc1C)c1cccc([125I])c1 (stereo not shown) [IV] | < 50 | – | – | – | – | –
Cc1ccccc1C(C(=O)NC1CCCCC1)N(C(=O)Cn1ccnc1C)c1cccc([18F])c1 (stereo not shown) [III] | < 50 | – | – | – | – | –
C[C@H](Nc1ccc(C#N)n(C)c1=O)c1cc2cc([125I])ccc2[nH]c1=O [(S)-[^125I]2] | – | – | – | – | – | RCP (stability) ([1]; DPBS pH 7.4, room temperature, 3 h post formulation): 97.4%; RCP (stability) ([1]; ethanolic solution eluted after C18 SPE cartridge, room temperature, 3 h post formulation): 98.0%; RCP (stability) ([1]; formulation medium (saline, ca. 5% ethanol), room temperature, 3 h post formulation): 97.2%; RCP (stability) ([2]; 3 h at 37 °C): 94.3%
C[C@H](Nc1ccc(C#N)n(C)c1=O)c1cc2cc([18F])ccc2[nH]c1=O [(S)-[^18F]3] | – | – | – | – | – | RCP (stability) ([1]; DPBS (pH 7.4) containing 5% ethanol, over 2 h): > 99%; RCP (stability) ([1]; NaCl 0.9% containing 5% ethanol, over 2 h): > 99%; RCP (stability) ([1]; ethanolic solution from final C18 SPE cartridge, over 2 h): > 99%; RCP (stability) ([2]; 37 °C, over 2 h): > 99%
CCCCc1ccc(NS(=O)(=O)c2ccc(C)c(C(=O)N3CCN(c4ccccc4OCC[18F])CC3)c2)cc1 [VII] | – | – | – | – | – | IC50 (mIDH1; [4]): 2300 nM
C[C@H](Nc1ccc(C#N)n(C)c1=O)c1cc2cc(F)ccc2[nH]c1=O [(S)-3, (S)-5-{[1-(6-fluoro-2-oxo-1,2-dihydroquinolin-3-yl)ethyl]-amino}-1-methyl-6-oxo-1,6-dihydropyridine-2-carbonitrile] | – | 579 ± 110 | > 10000 | > 10000 | 22.7 ± 5.2 | decrease of inhibitory potency compared with iodinated compound (S)-2 (IDH1 R132H; IDH1 R132H): fourfold
CCCCc1ccc(NS(=O)(=O)c2ccc(C)c(C(=O)N3CCN(c4ccccc4[125I])CC3)c2)cc1 [VI] | – | – | – | – | – | IC50 (mIDH1; [4]): 1700 nM
C[C@@H](Nc1ccc(C#N)n(C)c1=O)c1cc2cc(F)ccc2[nH]c1=O [(R)-3, (R)-5-{[1-(6-fluoro-2-oxo-1,2-dihydroquinolin-3-yl)ethyl]-amino}-1-methyl-6-oxo-1,6-dihydropyridine-2-carbonitrile] | – | > 10000 | > 10000 | > 10000 | 698 ± 145 | –
C[C@@H](Nc1ccc(C#N)n(C)c1=O)c1cc2cc(I)ccc2[nH]c1=O [(R)-2, (R)-5-{[1-(6-iodo-2-oxo-1,2-dihydroquinolin-3-yl)ethyl]-amino}-1-methyl-6-oxo-1,6-dihydropyridine-2-carbonitrile] | – | > 10000 | > 10000 | > 10000 | 323 ± 83 | –
